Assays:
[1] = Particle size distribution of crystals by sieving (JIS Z 8801 / JIS Z 8901); format: physicochemical; conditions: for ratio of weight of crystals, particle size <177 μm: mesh size <177 μm; for ratio of weight of crystals, particle size <350, ≧177 μm: mesh size <350, ≧177 μm; for ratio of weight of crystals, particle size ≧350 μm: mesh size ≧350 μm
Text: Arbitrarily, 3.0 g of Compound (1) in a crystalline form obtained in each of Example 2, Comparative example 2, Example 3 and Comparative example 3 was taken out. Test sieves with a mesh size in accordance with the Japanese Industrial Standard (JIS Z 8801), having a mesh size of 500 μm, 420 μm, 350 μm, 250 μm, 177 μm, 149 μm, 125 μm, 74 μm or 44 μm and an inner diameter of 8 cm, were used, and were shaken by hand in accordance with the measurement procedure of the standard sieving method specified in JIS Z 8901. The results obtained by comparing the particle size distributions between the “crystal of Example 2” and the “crystal of Comparative example 2”, and between the “crystal of Example 3” and the “crystal of Comparative example 3” are shown in Table 3.

[2] = Bulk density of crystals passing a 500 μm sieve (tapped); format: physicochemical; conditions: crystals with particle size 500 μm or less; weight of crystals/volume of crystals after tapping
Experimental: Arbitrarily, 3.0 g of Compound (1) in a crystalline form obtained in each of Example 1, Comparative example 1, Example 2 and Comparative example 2 was taken out, and was passed through a test sieve with a diameter of 8 cm and a mesh size of 500 μm in accordance with the Japanese Industrial Standard (JIS Z 8801), and the bulk density of the crystals passing through the sieve was measured. […] The bulk density was calculated by using “weight of crystals”/“volume of crystals” as a calculation method.

[3] = Storage stability of the crystals at 60° C. (remaining activity by HPLC); format: physicochemical
Experimental: About 500 mg of Compound (1) in a crystalline form obtained in each of Example 1 and Comparative example 1 was weighed out in a glass bottle, and the bottle was tightly sealed. Then, the bottle was left in a constant-temperature room at 60° C. for 8 days.

[4] = stored at 40° C. for 20 days, crystalline form; cited from earlier work
[5] = Day 1 (set as 100%), crystal in sealed glass bottle at 60° C.
[6] = Day 4, crystal in sealed glass bottle at 60° C.
[7] = Day 6, crystal in sealed glass bottle at 60° C.
[8] = Day 8, crystal in sealed glass bottle at 60° C.

SMILES	ratio of weight of crystals, particle size <177 μm [1]	ratio of weight of crystals, particle size <350, ≧177 μm [1]	ratio of weight of crystals, particle size ≧350 μm [1]	Bulk Density [2]	remaining activity [3, 5]	remaining activity [3, 6]	remaining activity [3, 7]	remaining activity [3, 8]	decomposition ([3]; storage at 60° C., 8 days, crystal obtained by the same method as Patent document 4)	decomposition on storage [4]
C[C@@H](O)[C@H]1C(=O)N2C(C(=O)OCc3ccc([N+](=O)[O-])cc3)=C(OP(=O)(Oc3ccccc3)Oc3ccccc3)[C@H](C)[C@H]12 [Comparative example 2, p-nitrobenzyl (4R,5R,6S)-1-aza-3-diphenyloxyphosphoryloxy-6-[(1R)-1-hydroxyethyl]-4-methyl-7-oxobicyclo[3.2.0]hept-2-en-2-carboxylate, reference compound]	34%	47%	19%	0.36	–	–	–	–	–	–
C[C@@H](O)[C@H]1C(=O)N2C(C(=O)OCc3ccc([N+](=O)[O-])cc3)=C(OP(=O)(Oc3ccccc3)Oc3ccccc3)[C@H](C)[C@H]12 [Comparative Example 1, p-nitrobenzyl (4R,5R,6S)-1-aza-3-diphenyloxyphosphoryloxy-6-[(1R)-1-hydroxyethyl]-4-methyl-7-oxobicyclo[3.2.0]hept-2-en-2-carboxylate, reference compound]	–	–	–	0.37	100%	96%	87%	80%	–	–
C[C@@H](O)[C@H]1C(=O)N2C(C(=O)OCc3ccc([N+](=O)[O-])cc3)=C(OP(=O)(Oc3ccccc3)Oc3ccccc3)[C@H](C)[C@H]12 [Example 3, p-nitrobenzyl (4R,5R,6S)-1-aza-3-diphenyloxyphosphoryloxy-6-[(1R)-1-hydroxyethyl]-4-methyl-7-oxobicyclo[3.2.0]hept-2-en-2-carboxylate]	18%	36%	46%	–	–	–	–	–	–	–
C[C@@H](O)[C@H]1C(=O)N2C(C(=O)OCc3ccc([N+](=O)[O-])cc3)=C(OP(=O)(Oc3ccccc3)Oc3ccccc3)[C@H](C)[C@H]12 [Example 1, p-nitrobenzyl (4R,5R,6S)-1-aza-3-diphenyloxyphosphoryloxy-6-[(1R)-1-hydroxyethyl]-4-methyl-7-oxobicyclo[3.2.0]hept-2-en-2-carboxylate]	–	–	–	0.43	100%	97%	92%	88%	–	–
C[C@@H](O)[C@H]1C(=O)N2C(C(=O)OCc3ccc([N+](=O)[O-])cc3)=C(OP(=O)(Oc3ccccc3)Oc3ccccc3)[C@H](C)[C@H]12 [Example 2, p-nitrobenzyl (4R,5R,6S)-1-aza-3-diphenyloxyphosphoryloxy-6-[(1R)-1-hydroxyethyl]-4-methyl-7-oxobicyclo[3.2.0]hept-2-en-2-carboxylate]	10%	41%	49%	0.40	–	–	–	–	–	–
C[C@@H](O)[C@H]1C(=O)N2C(C(=O)OCc3ccc([N+](=O)[O-])cc3)=C(OP(=O)(Oc3ccccc3)Oc3ccccc3)[C@H](C)[C@H]12 [Compound (1), p-nitrobenzyl (4R,5R,6S)-1-aza-3-diphenyloxyphosphoryloxy-6-[(1R)-1-hydroxyethyl]-4-methyl-7-oxobicyclo[3.2.0]hept-2-en-2-carboxylate]	–	–	–	–	–	–	–	–	20%	not decomposed
C[C@@H](O)[C@H]1C(=O)N2C(C(=O)OCc3ccc([N+](=O)[O-])cc3)=C(OP(=O)(Oc3ccccc3)Oc3ccccc3)[C@H](C)[C@H]12 [Comparative example 3, p-nitrobenzyl (4R,5R,6S)-1-aza-3-diphenyloxyphosphoryloxy-6-[(1R)-1-hydroxyethyl]-4-methyl-7-oxobicyclo[3.2.0]hept-2-en-2-carboxylate, reference compound]	25%	45%	30%	–	–	–	–	–	–	–
